Results published in US20230103444A1 (The Regents of the University of Colorado, a Body Corporate, priority 2020, published 2023).

System: VimPro-GFP SW620 xenograft tumors
Experiment: Pharmacodynamic Western blot of xenograft tumor tissue
Format: in vivo, athymic nude mice
Conditions: 50 mg/kg i.p. QD 5 days
Experimental: CRC cell lines and homogenized tumor tissue samples from mice were resuspended in RIPA lysis buffer (20 mM Tris-HCl (pH 7.5), 150 mM NaCl, 1 mM Na2EDTA, 1 mM EGTA, 1% NP-40, 1% sodium deoxycholate, 2.5 mM sodium pyrophosphate, 1 mM b-glycerophosphate, 1 mM Na3VO4, 0.1 mM PMSF. Protein concentration was determined using the Pierce™ BCA protein assay kit (ThermoFisher, Waltham, Mass.). Forty micrograms of sample were run on 10% Bis-Tris gels. Following electrophoresis, the proteins were transferred to a nitrocellulose membrane. The membranes were blocked at room temperature with 5% non-fat milk in TBS/Tween® 20 (TBST contains 20 mM Tris, 150 mM NaCl, and 0.1% Tween®20 (Croda International PLC, Snaith, UK) for 1 hour at room temperature. Membranes were washed three times with TBST. Blots were incubated with the appropriate primary antibody in 5% nonfat milk in TBST overnight at 4° C. Membranes were washed three times with TBST and then incubated with appropriate secondary antibody for one hour. Membranes were washed again with TBST three times. […]
Two million VimPro-GFP SW620 cells suspended in 100 μL of a 1:1 mixture of Matrigel® matrix (Corning Life Sciences, Corning, N.Y.) and RPMI 1640 were injected into the flanks of 9-week old female athymic nude mice (Nude-Foxn1nu (069)) (Envigo, Huntingdon, Cambridgeshire, UK). Growth was monitored with caliper measurements 3× per week. […]

SMILES: Cc1cc(Nc2ccc(NC(=O)Cc3cccs3)cc2)nc(N2CCCC2)n1 [Compound 6, N-(4-((6-methyl-2-(pyrrolidin-1-yl)pyrimidin-4-yl)amino)phenyl)-2-(thiophen-2-yl)acetamide]
- epithelial marker ZO-1 and cleaved caspase 3 in tumor tissue: not statistically significant, upregulation of the epithelial marker ZO-1 and induction of cleaved caspase 3
- mesenchymal markers vimentin, vimentin reporter (VimPro-GFP) and slug in tumor tissue: significant downregulation
